From ChEMBL document CHEMBL1136714 (J Med Chem, 2003)
pIC50: −log10 of the molar value.

Experiments:
[1] = target: T1, Sodium-dependent dopamine transporter (Rattus norvegicus, UniProt P23977); test: Inhibition of uptake from dopamine transporter in rat striatum using [3H]DA as radioligand; type: functional, tissue-based
[2] = target: Norepinephrine transporter (Rattus norvegicus, UniProt Q9WTR4); test: Binding affinity towards norepinephrine transporter in rat striatum using [3H]nisoxetine as radioligand; type: tissue-based
[3] = target: Sodium-dependent serotonin transporter (Rattus norvegicus, UniProt P31652); test: Binding affinity towards serotonin transporter in rat striatum using [3H]citalopram as radioligand; type: tissue-based
[4] = target: T1, Sodium-dependent dopamine transporter; test: Binding affinity towards dopamine transporter in rat striatum using [3H]WIN-35 428 as radioligand; type: tissue-based

T1 sequence (P23977 whole entry): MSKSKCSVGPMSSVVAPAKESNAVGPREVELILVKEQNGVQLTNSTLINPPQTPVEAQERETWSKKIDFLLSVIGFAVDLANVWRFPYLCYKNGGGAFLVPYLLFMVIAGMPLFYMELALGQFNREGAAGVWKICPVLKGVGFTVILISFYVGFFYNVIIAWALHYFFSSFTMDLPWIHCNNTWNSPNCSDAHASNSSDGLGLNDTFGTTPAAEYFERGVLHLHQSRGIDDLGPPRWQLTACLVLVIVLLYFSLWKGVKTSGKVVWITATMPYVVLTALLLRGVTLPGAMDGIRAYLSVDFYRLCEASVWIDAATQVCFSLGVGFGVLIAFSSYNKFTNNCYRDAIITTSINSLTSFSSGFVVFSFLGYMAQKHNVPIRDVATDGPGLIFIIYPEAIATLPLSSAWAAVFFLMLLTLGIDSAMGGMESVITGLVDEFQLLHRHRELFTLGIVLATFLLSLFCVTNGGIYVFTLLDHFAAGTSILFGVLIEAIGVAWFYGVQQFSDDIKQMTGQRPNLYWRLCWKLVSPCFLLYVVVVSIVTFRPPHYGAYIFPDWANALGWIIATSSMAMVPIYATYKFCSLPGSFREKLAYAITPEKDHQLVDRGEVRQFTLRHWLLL
Chain of Norepinephrine transporter (Q9WTR4 whole entry): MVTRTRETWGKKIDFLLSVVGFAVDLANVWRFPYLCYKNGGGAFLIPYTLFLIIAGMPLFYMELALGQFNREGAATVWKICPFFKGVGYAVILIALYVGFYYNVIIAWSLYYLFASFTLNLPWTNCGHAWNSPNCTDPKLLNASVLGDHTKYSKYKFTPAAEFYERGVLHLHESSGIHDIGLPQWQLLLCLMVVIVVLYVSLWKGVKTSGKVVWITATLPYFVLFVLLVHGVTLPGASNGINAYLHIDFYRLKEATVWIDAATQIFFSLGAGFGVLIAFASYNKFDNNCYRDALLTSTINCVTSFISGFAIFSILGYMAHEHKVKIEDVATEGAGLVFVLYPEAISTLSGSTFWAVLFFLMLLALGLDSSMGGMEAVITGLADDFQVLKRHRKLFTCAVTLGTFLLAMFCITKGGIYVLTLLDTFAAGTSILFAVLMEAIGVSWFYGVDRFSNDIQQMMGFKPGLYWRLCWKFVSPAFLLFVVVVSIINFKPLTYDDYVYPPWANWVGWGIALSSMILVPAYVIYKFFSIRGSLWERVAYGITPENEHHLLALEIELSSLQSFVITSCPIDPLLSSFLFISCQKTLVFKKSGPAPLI
Chain of Sodium-dependent serotonin transporter (P31652 whole entry): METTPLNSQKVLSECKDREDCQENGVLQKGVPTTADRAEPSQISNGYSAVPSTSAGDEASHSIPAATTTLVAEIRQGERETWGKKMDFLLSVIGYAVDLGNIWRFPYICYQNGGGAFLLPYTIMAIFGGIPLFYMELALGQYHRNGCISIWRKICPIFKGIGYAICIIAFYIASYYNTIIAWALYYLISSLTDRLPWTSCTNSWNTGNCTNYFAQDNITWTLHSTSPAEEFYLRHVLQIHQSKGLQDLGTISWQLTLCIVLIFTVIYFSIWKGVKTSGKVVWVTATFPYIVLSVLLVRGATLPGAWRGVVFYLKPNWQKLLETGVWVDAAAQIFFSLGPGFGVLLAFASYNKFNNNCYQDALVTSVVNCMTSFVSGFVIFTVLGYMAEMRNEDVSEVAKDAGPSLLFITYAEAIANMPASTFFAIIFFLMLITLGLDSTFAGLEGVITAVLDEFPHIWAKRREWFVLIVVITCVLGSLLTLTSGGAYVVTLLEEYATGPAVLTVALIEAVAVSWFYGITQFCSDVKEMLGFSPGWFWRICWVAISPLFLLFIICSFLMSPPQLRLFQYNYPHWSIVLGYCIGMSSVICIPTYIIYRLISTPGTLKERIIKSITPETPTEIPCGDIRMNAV

| SMILES | pIC50 [1] | pIC50 [2] | pIC50 [3] | pIC50 [4] |
| --- | --- | --- | --- | --- |
| O[C@@H]1CN(Cc2ccc(F)cc2)CC[C@H]1CCOC(c1ccccc1)c1ccccc1 (racemic) | 8.49 | 5.99 | 5.63 | 8.38 |
| O=C1CN(Cc2ccc(F)cc2)CC[C@H]1CCOC(c1ccccc1)c1ccccc1 | – | 5.20 | 5.11 | 7.00 |
| O[C@H]1CN(Cc2ccc(F)cc2)CC[C@H]1CCOC(c1ccccc1)c1ccccc1 (racemic) | 8.00 | 5.67 | 5.48 | 7.95 |
| O[C@@H]1CN(Cc2ccc(F)cc2)CC[C@H]1CCOC(c1ccccc1)c1ccccc1 | 7.42 | 5.81 | 5.74 | 7.25 |
| OC1CN(Cc2ccc(F)cc2)CC[C@@H]1CCOC(c1ccccc1)c1ccccc1 (stereo not given in full) | 8.39 | 5.73 | 5.44 | 9.34 |
| Fc1ccc(CN2CCC(CCOC(c3ccccc3)c3ccccc3)CC2)cc1 | 8.61 | – | – | – |
| Fc1ccc(CN2CC=C(CCOC(c3ccccc3)c3ccccc3)CC2)cc1 | – | – | 5.95 | 7.42 |
| CCC(=O)O[C@@H]1CN(Cc2ccc(F)cc2)CC[C@H]1CCOC(c1ccccc1)c1ccccc1 | – | 4.45 | 3.75 | 6.23 |
